Source: article PMC12597529, “Interaction between W41 of the hepatitis B virus preS1 surface peptide and Y146/F274 of the cellular receptor molecule Na^+/taurocholate co-transporting polypeptide is essential for virus entry” (Molecular Pharmacology, 2025)
“And” between values parts separate entries of the source, which are not always exact repeats. Equal values may be shown once. Read-outs that look alike come from different tables or passages of the source. Ends that are not written are not given here. * marks the point of attachment. Myristoyl = CCCCCCCCCCCCCC(=O)*

Experiments:
NTCP = conditions: most of these compounds, cited from earlier work
From the text: The hepatitis B virus (HBV) belongs to the family of Hepadnaviridae. Its DNA genome encodes 3 surface proteins (HBs), namely small HBs, middle HBs, and large HBs.[1] The hepatitis D virus (HDV) is a small negative-sense RNA satellite virus and depends on the HBV envelope for entry into hepatocytes, assembly, and secretion of newly formed virions.[2] […] HBV/HDV attachment to NTCP occurs via the myristoylated preS1 domain (myr-pre ...

[1] = tested on: NTCPwt and NTCP-Y146A/F274A; test: myr-preS1-AX568 peptide binding assay, NTCPwt-HEK293 vs NTCP-Y146A/F274A-HEK293 cells; set-up: species or system human; conditions: 5 to 160 nM, 37 °C, fluorescence, quadruplicate determinations, two-way ANOVA P < .01
Procedure: T-Rex Flp-In human embryonic kidney (HEK293) cells (Thermo Fisher Scientific; RRID CVCL_0045) were grown in 1:1 Dulbecco’s modified Eagle medium (DMEM)/Ham’s F12 (Gibco). Both media were supplemented with 10% fetal calf serum (Gibco), L-glutamine 4 mM (Gibco), penicillin 100 U/mL (Carl Roth), and streptomycin 100 μg/mL (Carl Roth). Stably transfected T-Rex Flp-In HEK293 cells were selected with 100 μg/mL hygromycin (Carl Roth). Expression of the recombinant NTCP proteins was induced with 5 μg/mL tetracycline treatment for 72 hours. All cell lines were cultivated in 5% CO2 atmosphere at 37 °C. Cell lines were routinely checked for possible mycoplasma contamination. […]
To study the HBV receptor function of NTCP, NTCPwt-HEK293 and NTCP-Y146A/F274A-HEK293 cells were incubated with the C-terminally Alexa 568 fluorophore-coupled myr-preS1 peptide (further referred to as myr-preS1-AX568), which consists of amino acids 2 to 48 of the large HBV genotype D3 surface protein (Biosynthesis). […] Myr-preS1-AX568 peptide binding was analyzed using Leica DMI6000 B inverted fluorescent microscope and LAS X software, or fluorescence was quantified with Spark multimode microplate reader (Spark Multimode Microplate, Tecan) (excitation: 570 nm, emission: 615 nm). […] Cell-associated radioactivity was quantified by liquid scintillation counting in a Packard Microplate Scintillation Counter TopCount NXT.

NTCP variants = conditions: cited from earlier work
From the text: This is exemplified by the genetic c.800G>A variant (rs2296651) that is frequent in East Asian populations and that leads to S267F mutation of NTCP inside the tunnel structure. […] More detailed analysis ... || Interaction site A is formed between F13 and F14 of myr-preS1 and the amino acids Q264, F283, F284, and L287 (TM8b, EL4, and TM9) as well as F18 (TM1) of NTCP; interaction sites B between F23 of myr-preS1 and V29 and V32 of NTCP; and interaction site C between K38, D39, H40, and W41 of myr-preS1 and A273, F274, and P275 (TM8b, EL4, and TM9) as well as Y146 (of EL2) of NTCP. For some of these amino acids, mutation studies confirmed their role for the myr-preS1 interaction. […] However, this domain also covers the surface of NTCP and not the tunnel structure. Within the published structures N87 forms hydrogen binds with E43 and K46 of the myr-preS1 string structure, while for the NTCP amino acid residues 84 to 86 no interactions with the myr-preS1 peptide could be detected. As mouse Ntcp with the corresponding residues 84HLTS87 has S ...

[2] = biological target: T1, human Na+/taurocholate co-transporting polypeptide, wild type, FLAG-tagged, on NTCPwt-HEK293 cells (human, UniProt Q14973 1-349); test: radioligand binding; competition: 5 nM [3H]preS1 on tetracycline-induced NTCP-HEK293 cells in 96-well plates, 10 minutes at 37 °C in DMEM, after preincubation with increasing concentrations of unlabelled peptide; cells without tetracycline as 0% control; liquid scintillation counting; 2 independent experiments; conditions: one partner purified
T1 construct: also called NTCP-FLAG; NTCP-HEK293; source: T-Rex Flp-In HEK293, stably transfected (pcDNA5/FRT/TO), expression induced with tetracycline for 72 hours, on cells
T1 sequence (looked up): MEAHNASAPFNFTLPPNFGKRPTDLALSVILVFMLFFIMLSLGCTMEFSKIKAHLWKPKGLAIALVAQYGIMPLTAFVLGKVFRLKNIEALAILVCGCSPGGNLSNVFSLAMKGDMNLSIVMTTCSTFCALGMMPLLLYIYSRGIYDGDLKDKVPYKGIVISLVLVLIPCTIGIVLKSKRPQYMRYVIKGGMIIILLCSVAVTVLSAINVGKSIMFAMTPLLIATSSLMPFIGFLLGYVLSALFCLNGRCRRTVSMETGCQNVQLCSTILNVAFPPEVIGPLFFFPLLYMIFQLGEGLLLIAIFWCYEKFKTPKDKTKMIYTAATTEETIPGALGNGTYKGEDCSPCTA

[3] = biological target: T1, human Na+/taurocholate co-transporting …; test: cell-based or functional assay

Question: Which “NTCP inhibition, selectivity virus binding vs bile acid transport” value (NTCP; plant-derived compounds) does the source give for C=C(C)[C@@H]1CC[C@]2(C(=O)O)CC[C@]3(C)[C@H](CC[C@@H]4[C@@]5(C)CC[C@H](O)C(C)(C)[C@@H]5CC[C@]43C)[C@@H]12 [betulinic acid] here?
Answer: block NTCP in a nonselective manner

Question: With CCCCCCCCCc1cc(OC(=O)c2c(CCCCCCCCC)cc(O)cc2OC2OC(CO)C(O)C(O)C2O)cc(O)c1C(=O)O (stereo not drawn) [exophillic acid] as the molecule, how does the “NTCP inhibition, selectivity virus binding vs bile acid transport” value (NTCP; plant-derived compounds) read?
Answer: block NTCP in a nonselective manner

Question: Which “NTCP inhibition, selectivity virus binding vs bile acid transport” value (NTCP; approved drugs) does the source give for O=C1[C@H](CC[C@H](O)c2ccc(F)cc2)[C@@H](c2ccc(O)cc2)N1c1ccc(F)cc1 [ezetimibe] here?
Answer: block NTCP in a nonselective manner

Question: With CCCCC1=NC2(CCCC2)C(=O)N1Cc1ccc(-c2ccccc2-c2nnn[nH]2)cc1 [irbesartan] as the molecule, how does the “NTCP inhibition, selectivity virus binding vs bile acid transport” value (NTCP; approved drugs) read?
Answer: block NTCP in a nonselective manner

Question: For CC[C@H]1[C@@H](O)[C@@H]2[C@H](CC[C@]3(C)[C@@H]([C@H](C)CCC(=O)O)CC[C@@H]23)[C@@]2(C)CC[C@@H](O)C[C@@H]12 [obeticholic acid], which “NTCP inhibition, selectivity virus binding vs bile acid transport” value (NTCP; bile acid derivatives) is on record?
Answer: block NTCP in a nonselective manner

Question: Which “NTCP inhibition, selectivity virus binding vs bile acid transport” value (NTCP; approved drugs) does the source give for CC(C)c1nc(CN(C)C(=O)N[C@H](C(=O)N[C@@H](Cc2ccccc2)C[C@H](O)[C@H](Cc2ccccc2)NC(=O)OCc2cncs2)C(C)C)cs1 [ritonavir] here?
Answer: block NTCP in a nonselective manner

Question: With CN(CCOc1ccc(CC2SC(=O)NC2=O)cc1)c1ccccn1 (stereo not drawn) [rosiglitazone] as the molecule, how does the “NTCP inhibition, selectivity virus binding vs bile acid transport” value (NTCP; approved drugs) read?
Answer: block NTCP in a nonselective manner

Question: Which “NTCP inhibition, selectivity virus binding vs bile acid transport” value (NTCP; plant-derived compounds) does the source give for CCC(C)CC(C)C(=O)OC1(C)C(=O)c2c(cc(O)c3c2CC(O)CC3C)C(C)(O)C1=O (stereo not drawn) [vanitaracin A] here?
Answer: block NTCP in a nonselective manner

Question: Which “binding to the Y146A/F274A NTCP mutant compared with NTCPwt” value [1] does the source give for “myr-preS1-AX568: C-terminally Alexa 568 fluorophore-coupled myr-preS1 peptide, amino acids 2 to 48 of the large HBV genotype D3 surface protein (Myristoyl-GQNLSTSNPLGFFPDHQLDPAFRANTANPDWDFNPNKDTWPDANKVG-{Alexa 568}; also: myristoylated (myr-preS1))” here?
Answer: much lower binding to the NTCP-Y146A/F274A mutant compared with NTCPwt

Question: For “myr-preS1: myristoylated preS1 domain of the HBV large surface protein (Myristoyl-GQNLSTSNPLGFFPDHQLDPAFRANTANPDWDFNPNKDTWPDANKVG)”, which myr-preS1 binding (NTCP variants; 84 to 87 humanized construct of mouse Ntcp) is on record?
Answer: did not only bind myr-preS1 but also supported infection

Question: What about the myr-preS1 binding (NTCP variants; 158R NTCP variant found in OWM) of the same molecule?
Answer: resistant to myr-preS1 binding

Question: And the myr-preS1 binding (NTCP variants; NTCP Q264A mutant, bile acid transport retained)?
Answer: significantly reduced myr-preS1 binding

Question: What about the myr-preS1 binding (NTCP variants; NTCP V272W mutant, intact bile acids transport) of the same molecule?
Answer: significantly reduced myr-preS1 binding

Question: And the myr-preS1 binding (NTCP variants; R158G mutation of OWM Ntcp)?
Answer: sufficient to support myr-preS1 binding

B1: wild-type myr-preS1 peptide of HBV genotype D (unlabelled) (peptide)
peptide: GQNLSTSNPLGFFPDHQLDPAFRANTANPDWDFNPNKDTWPDANKVG
modifications: not fully specified (N-terminus); also: myristoylated (myr-preS1)
notes: also called myr-preS1 WT; wild-type myr-preS1 peptide (genotype D)
Question: With B1 as the molecule, how does the IC50 [2] read?
Answer: 99 nM and 168 nM

Question: And the “inhibition of [3H]TCA (1 μM) transport via NTCP in NTCP-HEK293 cells, 10 minutes at 37 °C, IC50” value [3]?
Answer: 111 nM and 221 nM

B2: W41G mutant myr-preS1 peptide of HBV genotype D (peptide)
peptide: GQNLSTSNPLGFFPDHQLDPAFRANTANPDWDFNPNKDTGPDANKVG
modifications: not fully specified (N-terminus); also: myristoylated (myr-preS1)
notes: also called myr-preS1-W41G; myr-preS1 W41G peptide; source: bought: ProteoGenix S.A.S
Question: For B2, which IC50 [2] is on record?
Answer: 422 nM and 298 nM

Question: What about the “inhibition of [3H]TCA (1 μM) transport via NTCP in NTCP-HEK293 cells, 10 minutes at 37 °C, IC50” value [3] of the same molecule?
Answer: 386 nM and 397 nM
